Experiments:
off-target genes = experiment: Transcriptional response to FK506 titration in yeast strain with CNA1 and CNA2 deleted; type: cell-based, S. cerevisiae
Excerpt: The response of those genes to FK506 were considered as off-target activity. Each ORF (Open Reading Frame) may be corresponding to an off-target gene.

yeast = experiment: Growth of yeast under methotrexate titration; type: cell-based, S. cerevisiae; conditions: 100 μM titration
yeast gene YOL031C = experiment: Yeast gene expression response to methotrexate exposure, Hill function fit; type: cell-based, S. cerevisiae; conditions: least squares fit
Excerpt: FIG. 4 illustrates the fit of a Hill function to the response of gene YOL031C illustrated in FIG. 3.
[formula] The adjustable parameters are selected independently for each cellular constituent of the drug response and for each cellular constituent of the pathway response. Preferably, the adjustable parameters are selected so that for each cellular constituent of each pathway response the sum of the squares of the distances of H(pi,l) from Ri,l(Pi,l) is minimized, and so that for each cellular constituent of the drug response the sum of the squares of the distances of H(tl) from Dk(tl) is minimized. This preferable parameter adjustment method is known in the art as a least squares fit of H( ) to Ri,k( ) or to Dk( ). Other possible model functions are based on polynomial fitting, for example by various known classes of polynomials.
Model fitting with a Hill function is illustrated with respect to FIGS. 3 and 4. As discussed, FIG. 3 illustrates an example of a pathway perturbed by methotrexate and identified by measurement. This figure illustrates the mRNA expression levels of 30 genes of the yeast S. cerevisiae that, of the approximately 6000 genes in the genome of this yeast, had the largest expression changes in response to six different exposure levels of methotrexate. FIG. 4 illustrates a fit of the pathway response of one of these gene expression levels by a Hill function. In particular, the yeast gene YOL031C was fit by a Hill function with parameters n=2, a=−0.61, and log10 (u0)=1.26 selected by the previously described least squares method.

Excerpt for calcineurin pathway: In this example, the expression of a number of genes are monitored as a wild type yeast culture is subjected to a graded levels of the drug FK506 (FIG. 8A). Similar experiments are repeated with a yeast culture whose CNA1 and CNA2 genes are deleted (FIG. 8B). CNA1 and CNA2 are two components of the calcineurin multi-protein complex. Because the drug FK506 acts upon the calcineurin protein to exert its activity on the calcineurin pathway. Deletion of CNA1 and CNA2 eliminates the primary target pathway for FK506. […]
Control cultures were treated with the same volume of just ethanol. Growth was monitored by OD600 and cells were harvested at OD600=1.4+/−0.1 by centrifugation for 2 min at ambient temperature in a Sorvall RC5C+ centrifuge in a SLA-1500 rotor. […]
Extent of hybridization was determined by scanning with a prototype multi-frame CCD camera slides produced by Applied Precision, Inc. Images were processed by informatics and imported into the Inpharna database and analyzed using the MatLab data analysis package.
The horizontal axis is concentrations of the FK506 in logarithmic scale and the vertical axis is the values of the logarithm of the expression ratio of the genes most affected by FK506 on the vertical axis. […] P-Value is the probability that the up or down regulation is due to measurement error, as determined from observed statistics of the errors in Log 10 (expression ratio).

Question: How did the “Log10(Ratio)” value (off-target genes; ORF ARG1, deletion strain) turn out when `C=CC[C@@H]1/C=C(\C)C[C@H](C)C[C@H](OC)[C@H]2O[C@@](O)(C(=O)C(=O)N3CCCC[C@H]3C(=O)O[C@H](/C(C)=C/[C@@H]3CC[C@@H](O)[C@H](OC)C3)[C@H](C)[C@@H](O)CC1=O)[C@H](C)C[C@@H]2OC` [FK506] was run?
Answer: 0.9516

Question: And the “Log10(Ratio)” value (off-target genes; ORF ARG4, deletion strain)?
Answer: 0.7774

Question: What about the “Log10(Ratio)” value (off-target genes; ORF ARG5, 6, deletion strain) of the same molecule?
Answer: 0.9136

Question: And the “Log10(Ratio)” value (off-target genes; ORF ARO3, deletion strain)?
Answer: 0.6261

Question: And the “Log10(Ratio)” value (off-target genes; ORF CPA1, deletion strain)?
Answer: 0.5645

Question: What about the “Log10(Ratio)” value (off-target genes; ORF CPA2, deletion strain) of the same molecule?
Answer: 0.645

Question: And the “Log10(Ratio)” value (off-target genes; ORF ECM13, deletion strain)?
Answer: 0.8176

Question: And the “Log10(Ratio)” value (off-target genes; ORF GRE2, deletion strain)?
Answer: 0.6836

Question: And the “Log10(Ratio)” value (off-target genes; ORF HIS3, deletion strain)?
Answer: 0.6152

Question: And the “Log10(Ratio)” value (off-target genes; ORF HIS4, deletion strain)?
Answer: 0.8178

Question: And the “Log10(Ratio)” value (off-target genes; ORF HIS5, deletion strain)?
Answer: 0.8266

Question: And the “Log10(Ratio)” value (off-target genes; ORF NCE3, deletion strain)?
Answer: 0.5112

Question: What about the “Log10(Ratio)” value (off-target genes; ORF PDR5, deletion strain) of the same molecule?
Answer: 0.597

Question: What about the “Log10(Ratio)” value (off-target genes; ORF RIB5, deletion strain) of the same molecule?
Answer: 0.7436

Question: What about the “Log10(Ratio)” value (off-target genes; ORF SNO1, deletion strain) of the same molecule?
Answer: 0.7711

Question: What about the “Log10(Ratio)” value (off-target genes; ORF SNQ2, deletion strain) of the same molecule?
Answer: 0.6624

Question: What about the “Log10(Ratio)” value (off-target genes; ORF SNZ1, deletion strain) of the same molecule?
Answer: 0.9834

Question: What about the “Log10(Ratio)” value (off-target genes; ORF YER175C, deletion strain) of the same molecule?
Answer: 1.0121

Question: And the “Log10(Ratio)” value (off-target genes; ORF YGL117W, deletion strain)?
Answer: 0.8608

Question: What about the “Log10(Ratio)” value (off-target genes; ORF YHM1, deletion strain) of the same molecule?
Answer: 0.5235

Question: What about the “Log10(Ratio)” value (off-target genes; ORF YMR085W, deletion strain) of the same molecule?
Answer: 0.7679

Question: What about the “Log10(Ratio)” value (off-target genes; ORF YMR097C, deletion strain) of the same molecule?
Answer: 0.6945

Question: And the “Log10(Ratio)” value (off-target genes; ORF YOL150C, deletion strain)?
Answer: 0.7246

Question: And the “Log10(Ratio)” value (off-target genes; ORF YOR1, deletion strain)?
Answer: 0.5928

Question: What about the “Log10(Ratio)” value (off-target genes; ORF YOR203W, deletion strain) of the same molecule?
Answer: 0.6378

Question: What about the “Log10(Ratio)” value (off-target genes; ORF YPL088W, deletion strain) of the same molecule?
Answer: 0.4764

Question: What about the “toxic concentration: off-target transcriptional responses of many genes reach two-fold induction or repression” value (off-target genes; by inspection of FIG. 8B, calcineurin-deleted strain) of the same molecule?
Answer: approximately 12 mg/ml

Question: And the “concentration at which expression of most genes affected via the primary target (calcineurin pathway) reaches two fold induction or repression” value (calcineurin pathway)?
Answer: 200 ng/mL

Question: And the “concentration at which expression of most off-target genes reaches two fold induction or repression” value (calcineurin pathway)?
Answer: 12000 ng/mL

Question: For `CN(Cc1cnc2nc(N)nc(N)c2n1)c1ccc(C(=O)N[C@@H](CCC(=O)O)C(=O)O)cc1` [methotrexate], which growth defect (yeast) is on record?
Answer: 50%

Question: And the “Hill function parameter a” value (yeast gene YOL031C)?
Answer: −0.61

Question: And the “Hill function parameter n” value (yeast gene YOL031C)?
Answer: 2

Question: What about the “Hill function parameter log10 (u0)” value (yeast gene YOL031C; exposure levels in μM) of the same molecule?
Answer: 1.26

From patent US8560243B2, “Methods for determining therapeutic index from gene expression profiles” (Microsoft Corporation, priority 1998, dated 2013)
